PubChem BioAssay (NCI)
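Compound exposure: 48 hours, 5 concentrations, 96-well plates. GI50: concentration for 50% inhibition of growth. TGI: total growth inhibition.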

Each compound was assayed on NCI-H522 lung (assay: NCI anticancer screen, dose series, 48 h).

| SMILES | TGI |
| --- | --- |
| COc1ccc(-n2c(=O)[nH]n(C(C)=O)c2=O)cc1 | > 100 µM |

The compounds below were run on TK-10 renal (assay: NCI anticancer screen, dose series, 48 h).

| SMILES | TGI | GI50 |
| --- | --- | --- |
| COc1ccc2c3c1O[C@H]1C(OC)C=CC4C(C2)N(Cc2cccs2)CCC341 (stereo partly specified) | > 100 µM | – |
| Nc1nc(SCCc2ccccc2)nc2nc3c(c(-c4ccccc4)c12)CCCC3 | > 100 µM | – |
| C=CCOC(=O)NC1C(OC(C)[C@@H](NC(=O)OCc2ccccc2)C(=O)OC(C)(C)C)OC(COC(C)=O)C(OC(C)=O)C1OC(C)=O (stereo partly specified) | > 100 µM | – |
| O=c1[nH]nc(NNc2ccccc2)c2nnn(C3CCCCC3)c12 | > 100 µM | – |
| C=C1/C(=C\C=C2/CCC[C@]3(C)[C@@H]([C@H](C)CCCC(C)(C)O)CC[C@@H]23)C[C@@H](OC(=O)CBr)C[C@@H]1O | 21.6 µM | 6.88 µM |
| COc1ccc(-n2c(=O)[nH]n(C(C)=O)c2=O)cc1 | > 100 µM | – |
| O=C(c1ccc(Cl)cc1)N(C(=O)N1CCC(c2ccccc2)CC1)c1ccccc1 | > 100 µM | – |

The compounds below were run on KM12 colon (assay: NCI anticancer screen, dose series, 48 h).

| SMILES | TGI | GI50 |
| --- | --- | --- |
| Nc1nc(SCCc2ccccc2)nc2nc3c(c(-c4ccccc4)c12)CCCC3 | > 100 µM | – |
| C=CCOC(=O)NC1C(OC(C)[C@@H](NC(=O)OCc2ccccc2)C(=O)OC(C)(C)C)OC(COC(C)=O)C(OC(C)=O)C1OC(C)=O (stereo partly specified) | > 100 µM | – |
| O=c1[nH]nc(NNc2ccccc2)c2nnn(C3CCCCC3)c12 | > 100 µM | – |
| C=C1/C(=C\C=C2/CCC[C@]3(C)[C@@H]([C@H](C)CCCC(C)(C)O)CC[C@@H]23)C[C@@H](OC(=O)CBr)C[C@@H]1O | 3.03 µM | 0.4 µM |
| COc1ccc(-n2c(=O)[nH]n(C(C)=O)c2=O)cc1 | > 100 µM | – |
| O=C(c1ccc(Cl)cc1)N(C(=O)N1CCC(c2ccccc2)CC1)c1ccccc1 | 44.6 µM | – |

What follows are compounds tested on SK-OV-3 ovarian (assay: NCI anticancer screen, dose series, 48 h).

| SMILES | TGI | GI50 |
| --- | --- | --- |
| COc1ccc2c3c1O[C@H]1C(OC)C=CC4C(C2)N(Cc2cccs2)CCC341 (stereo partly specified) | > 100 µM | – |
| Nc1nc(SCCc2ccccc2)nc2nc3c(c(-c4ccccc4)c12)CCCC3 | > 100 µM | – |
| C=CCOC(=O)NC1C(OC(C)[C@@H](NC(=O)OCc2ccccc2)C(=O)OC(C)(C)C)OC(COC(C)=O)C(OC(C)=O)C1OC(C)=O (stereo partly specified) | > 100 µM | – |
| C=C1/C(=C\C=C2/CCC[C@]3(C)[C@@H]([C@H](C)CCCC(C)(C)O)CC[C@@H]23)C[C@@H](OC(=O)CBr)C[C@@H]1O | 29.5 µM | 14.9 µM |
| O=C(c1ccc(Cl)cc1)N(C(=O)N1CCC(c2ccccc2)CC1)c1ccccc1 | > 100 µM | – |

These compounds were tested on MDA-MB-435 (assay: NCI anticancer screen, dose series, 48 h).

| SMILES | TGI | GI50 |
| --- | --- | --- |
| COc1ccc2c3c1O[C@H]1C(OC)C=CC4C(C2)N(Cc2cccs2)CCC341 (stereo partly specified) | > 100 µM | – |
| Nc1nc(SCCc2ccccc2)nc2nc3c(c(-c4ccccc4)c12)CCCC3 | > 100 µM | – |
| C=CCOC(=O)NC1C(OC(C)[C@@H](NC(=O)OCc2ccccc2)C(=O)OC(C)(C)C)OC(COC(C)=O)C(OC(C)=O)C1OC(C)=O (stereo partly specified) | > 100 µM | – |
| O=c1[nH]nc(NNc2ccccc2)c2nnn(C3CCCCC3)c12 | > 100 µM | – |
| C=C1/C(=C\C=C2/CCC[C@]3(C)[C@@H]([C@H](C)CCCC(C)(C)O)CC[C@@H]23)C[C@@H](OC(=O)CBr)C[C@@H]1O | 10.9 µM | 4.22 µM |
| COc1ccc(-n2c(=O)[nH]n(C(C)=O)c2=O)cc1 | > 100 µM | – |
| O=C(c1ccc(Cl)cc1)N(C(=O)N1CCC(c2ccccc2)CC1)c1ccccc1 | > 100 µM | – |

Each compound was assayed on SW-620 colon (assay: NCI anticancer screen, dose series, 48 h).

| SMILES | TGI | GI50 |
| --- | --- | --- |
| COc1ccc2c3c1O[C@H]1C(OC)C=CC4C(C2)N(Cc2cccs2)CCC341 (stereo partly specified) | > 100 µM | – |
| Nc1nc(SCCc2ccccc2)nc2nc3c(c(-c4ccccc4)c12)CCCC3 | > 100 µM | – |
| C=CCOC(=O)NC1C(OC(C)[C@@H](NC(=O)OCc2ccccc2)C(=O)OC(C)(C)C)OC(COC(C)=O)C(OC(C)=O)C1OC(C)=O (stereo partly specified) | > 100 µM | – |
| C=C1/C(=C\C=C2/CCC[C@]3(C)[C@@H]([C@H](C)CCCC(C)(C)O)CC[C@@H]23)C[C@@H](OC(=O)CBr)C[C@@H]1O | 3.96 µM | 1.78 µM |
| COc1ccc(-n2c(=O)[nH]n(C(C)=O)c2=O)cc1 | > 100 µM | – |
| O=C(c1ccc(Cl)cc1)N(C(=O)N1CCC(c2ccccc2)CC1)c1ccccc1 | > 100 µM | – |

What follows are compounds tested on SK-MEL-5 melanoma (assay: NCI anticancer screen, dose series, 48 h).

| SMILES | TGI | GI50 |
| --- | --- | --- |
| C=CCOC(=O)NC1C(OC(C)[C@@H](NC(=O)OCc2ccccc2)C(=O)OC(C)(C)C)OC(COC(C)=O)C(OC(C)=O)C1OC(C)=O (stereo partly specified) | > 100 µM | – |
| O=c1[nH]nc(NNc2ccccc2)c2nnn(C3CCCCC3)c12 | > 100 µM | – |
| C=C1/C(=C\C=C2/CCC[C@]3(C)[C@@H]([C@H](C)CCCC(C)(C)O)CC[C@@H]23)C[C@@H](OC(=O)CBr)C[C@@H]1O | 6.41 µM | 2.46 µM |
| COc1ccc(-n2c(=O)[nH]n(C(C)=O)c2=O)cc1 | > 100 µM | – |
| O=C(c1ccc(Cl)cc1)N(C(=O)N1CCC(c2ccccc2)CC1)c1ccccc1 | 35.2 µM | – |

What follows are compounds tested on HL-60(TB) leukemia (assay: NCI anticancer screen, dose series, 48 h).

| SMILES | TGI | GI50 |
| --- | --- | --- |
| COc1ccc2c3c1O[C@H]1C(OC)C=CC4C(C2)N(Cc2cccs2)CCC341 (stereo partly specified) | > 100 µM | – |
| Nc1nc(SCCc2ccccc2)nc2nc3c(c(-c4ccccc4)c12)CCCC3 | > 100 µM | – |
| C=CCOC(=O)NC1C(OC(C)[C@@H](NC(=O)OCc2ccccc2)C(=O)OC(C)(C)C)OC(COC(C)=O)C(OC(C)=O)C1OC(C)=O (stereo partly specified) | > 100 µM | – |
| O=c1[nH]nc(NNc2ccccc2)c2nnn(C3CCCCC3)c12 | > 100 µM | – |
| C=C1/C(=C\C=C2/CCC[C@]3(C)[C@@H]([C@H](C)CCCC(C)(C)O)CC[C@@H]23)C[C@@H](OC(=O)CBr)C[C@@H]1O | 1.09 µM | 0.3 µM |
| COc1ccc(-n2c(=O)[nH]n(C(C)=O)c2=O)cc1 | > 100 µM | – |
| O=C(c1ccc(Cl)cc1)N(C(=O)N1CCC(c2ccccc2)CC1)c1ccccc1 | 61.5 µM | – |
